Assay results published in ChEMBL document CHEMBL5584293, “Discovery and evaluation of novel spiroheterocyclic protective agents via a SIRT1 upregulation mechanism in cisplatin-induced premature ovarian failure” (Bioorg Med Chem, 2024).
Active and inactive are the calls of the source. The rule behind the calls is not given here.

What was measured:
[1] = Cytotoxicity against human PDL cells assessed as cell viability at 50 uM incubated for 48 hrs by MTT assay; format: toxicity, cell-based
[2] = Cytotoxicity against human MIHA cells assessed as cell viability at 50 uM incubated for 48 hrs by MTT assay; format: toxicity, cell-based
[3] = system: NRK; assay: Cytotoxicity against rat NRK cells assessed as cell viability at 50 uM incubated for 48 hrs by MTT assay; format: toxicity, cell-based
[4] = system: KGN; assay: Protective effect against cisplatin-induced injury in human KGN cells assessed as cell survival at 5 uM incubated for 48 hrs by MTT assay; format: functional, cell-based
[5] = system: KGN; assay: Protective effect against cisplatin-induced injury in human KGN cells assessed as cell survival at 25 to 50 uM incubated for 48 hrs by MTT assay; format: functional, cell-based; settings: dose 25-50 µM

CN1C[C@H](c2ccccc2)[C@]2(CN(C(=O)OC(C)(C)C)C/C(=C\c3ccccc3)C2=O)[C@]12C(=O)Nc1ccccc12
Activity [1]: Non-Toxic | Activity [2]: Non-Toxic | Activity [3]: Non-Toxic

CC1N[C@@]2(C(=O)c3cccc4cccc2c34)[C@@]2(CCC/C(=C\c3ccccc3C(F)(F)F)C2=O)[C@H]1c1ccccc1C(F)(F)F (stereo not given in full)
Activity [4]: inactive

CC1N[C@@]2(C(=O)c3cccc4cccc2c34)[C@@]2(CCC/C(=C\c3ccc(Cl)c(Br)c3)C2=O)[C@H]1c1ccc(Cl)c(Br)c1 (stereo not given in full)
Activity [4]: inactive

O=C1c2cccc3cccc(c23)[C@]12NC(CO)[C@H](c1ccccc1)[C@]21CCC/C(=C\c2ccccc2)C1=O (stereo not given in full)
Activity [4]: Active

COc1ccc(/C=C2\CCC[C@@]3(C2=O)[C@@H](c2ccc(OC)c(O)c2)C(C)N[C@@]32C(=O)c3cccc4cccc2c34)cc1O (stereo not given in full)
Activity [4]: inactive

COc1cc(/C=C2\CCC[C@@]3(C2=O)[C@@H](c2cc(OC)cc(OC)c2)C(C)N[C@@]32C(=O)c3cccc4cccc2c34)cc(OC)c1 (stereo not given in full)
Activity [5]: Active | Activity [4]: inactive

CN1C[C@H](c2ccccc2)[C@]2(COC/C(=C\c3ccccc3)C2=O)[C@]12C(=O)Nc1ccc(F)cc12
Activity [1]: Non-Toxic | Activity [2]: Non-Toxic | Activity [3]: Non-Toxic

O=C1c2cccc3cccc(c23)[C@]12NC(Cc1c[nH]c3ccccc13)[C@H](c1ccccc1)[C@]21CCC/C(=C\c2ccccc2)C1=O (stereo not given in full)
Activity [4]: Active

O=C1c2cccc3cccc(c23)[C@]12NC(Cc1ccccc1)[C@H](c1ccccc1)[C@]21CCC/C(=C\c2ccccc2)C1=O (stereo not given in full)
Activity [4]: Active

CN1C[C@H](c2ccccc2)[C@]2(COC/C(=C\c3ccccc3)C2=O)[C@]12C(=O)Nc1ccccc12
Activity [1]: Non-Toxic | Activity [2]: Non-Toxic | Activity [3]: Non-Toxic

CN1C[C@H](c2ccccc2)[C@H](C(=O)/C=C/c2ccccc2)[C@]12C(=O)Nc1ccccc12
Activity [1]: Toxic | Activity [2]: Toxic | Activity [3]: Toxic

CN1C[C@H](c2ccccc2)[C@]2(CCC/C(=C\c3ccccc3)C2=O)[C@]12C(=O)Nc1ccc(Cl)cc12
Activity [1]: Non-Toxic | Activity [2]: Non-Toxic | Activity [3]: Non-Toxic

CC1N[C@@]2(C(=O)c3cccc4cccc2c34)[C@@]2(CCC/C(=C\c3cc(F)cc(F)c3)C2=O)[C@H]1c1cc(F)cc(F)c1 (stereo not given in full)
Activity [4]: inactive

CN1C[C@H](c2ccccc2)[C@H](C(=O)/C=C/c2ccccc2)[C@]12C(=O)Nc1ccc(F)cc12
Activity [1]: Toxic | Activity [2]: Toxic | Activity [3]: Toxic

CC1N[C@@]2(C(=O)c3cccc4cccc2c34)[C@@]2(CCC/C(=C\c3ccc(Cl)cc3)C2=O)[C@H]1c1ccc(Cl)cc1 (stereo not given in full)
Activity [4]: Active

COc1ccc(/C=C2\CCC[C@@]3(C2=O)[C@@H](c2ccc(OC)cc2OC)C(C)N[C@@]32C(=O)c3cccc4cccc2c34)c(OC)c1 (stereo not given in full)
Activity [4]: inactive

O=C1c2cccc3cccc(c23)[C@]12NC(Cc1c[nH]cn1)[C@H](c1ccccc1)[C@]21CCC/C(=C\c2ccccc2)C1=O (stereo not given in full)
Activity [4]: inactive

COc1ccc(/C=C2\CCC[C@@]3(C2=O)[C@@H](c2ccc(OC)cc2)C(C)N[C@@]32C(=O)c3cccc4cccc2c34)cc1 (stereo not given in full)
Activity [5]: Active | Activity [4]: inactive

CC1N[C@@]2(C(=O)c3cccc4cccc2c34)[C@@]2(CCC/C(=C\c3ccc(F)cc3)C2=O)[C@H]1c1ccc(F)cc1 (stereo not given in full)
Activity [5]: Active | Activity [4]: Active

CSCCC1N[C@@]2(C(=O)c3cccc4cccc2c34)[C@@]2(CCC/C(=C\c3ccccc3)C2=O)[C@H]1c1ccccc1 (stereo not given in full)
Activity [4]: inactive

CC(O)C1N[C@@]2(C(=O)c3cccc4cccc2c34)[C@@]2(CCC/C(=C\c3ccccc3)C2=O)[C@H]1c1ccccc1 (stereo not given in full)
Activity [4]: Active

CCOc1ccc(/C=C2\CCC[C@@]3(C2=O)[C@@H](c2ccc(OCC)cc2)C(C)N[C@@]32C(=O)c3cccc4cccc2c34)cc1 (stereo not given in full)
Activity [4]: inactive

CC1N[C@@]2(C(=O)c3cccc4cccc2c34)[C@@]2(CCC/C(=C\c3ccccc3Cl)C2=O)[C@H]1c1ccccc1Cl (stereo not given in full)
Activity [4]: Active

CN1C[C@H](c2ccccc2)[C@]2(CCC/C(=C\c3ccccc3)C2=O)[C@]12C(=O)Nc1ccc(F)cc12
Activity [1]: Non-Toxic | Activity [2]: Non-Toxic | Activity [3]: Non-Toxic

N=C(N)NCCCC1N[C@@]2(C(=O)c3cccc4cccc2c34)[C@@]2(CCC/C(=C\c3ccccc3)C2=O)[C@H]1c1ccccc1 (stereo not given in full)
Activity [4]: inactive

CC1N[C@@]2(C(=O)c3cccc4cccc2c34)[C@@]2(CCC/C(=C\c3cc(Br)cs3)C2=O)[C@H]1c1cc(Br)cs1 (stereo not given in full)
Activity [4]: Active

CC1N[C@@]2(C(=O)c3cccc4cccc2c34)[C@@]2(CCC/C(=C\c3ccc4ccccc4c3)C2=O)[C@H]1c1ccc2ccccc2c1 (stereo not given in full)
Activity [4]: Active

COc1cc(/C=C2\CCC[C@@]3(C2=O)[C@@H](c2ccc(O)c(OC)c2)C(C)N[C@@]32C(=O)c3cccc4cccc2c34)ccc1O (stereo not given in full)
Activity [4]: inactive

CC1N[C@@]2(C(=O)c3cccc4cccc2c34)[C@@]2(CCC/C(=C\c3ccc(Br)o3)C2=O)[C@H]1c1ccc(Br)o1 (stereo not given in full)
Activity [4]: Active

COc1ccccc1/C=C1\CCC[C@@]2(C1=O)[C@@H](c1ccccc1OC)C(C)N[C@@]21C(=O)c2cccc3cccc1c23 (stereo not given in full)
Activity [4]: inactive

CN1C[C@H](c2ccccc2)[C@]2(CN(C(=O)OC(C)(C)C)C/C(=C\c3ccccc3)C2=O)[C@]12C(=O)Nc1ccc(F)cc12
Activity [1]: Non-Toxic | Activity [2]: Non-Toxic | Activity [3]: Non-Toxic

O=C1c2cccc3cccc(c23)[C@]12NC(Cc1ccc(O)cc1)[C@H](c1ccccc1)[C@]21CCC/C(=C\c2ccccc2)C1=O (stereo not given in full)
Activity [4]: inactive

Cc1ccc(/C=C2\CCC[C@@]3(C2=O)[C@@H](c2ccc(C)s2)C(C)N[C@@]32C(=O)c3cccc4cccc2c34)s1 (stereo not given in full)
Activity [4]: Active

CC(C)C1N[C@@]2(C(=O)c3cccc4cccc2c34)[C@@]2(CCC/C(=C\c3ccccc3)C2=O)[C@H]1c1ccccc1 (stereo not given in full)
Activity [4]: inactive

O=C(O)CCC1N[C@@]2(C(=O)c3cccc4cccc2c34)[C@@]2(CCC/C(=C\c3ccccc3)C2=O)[C@H]1c1ccccc1 (stereo not given in full)
Activity [4]: inactive

CC1N[C@@]2(C(=O)c3cccc4cccc2c34)[C@@]2(CCC/C(=C\c3ccc(Cl)cc3Cl)C2=O)[C@H]1c1ccc(Cl)cc1Cl (stereo not given in full)
Activity [4]: inactive

CC1N[C@@]2(C(=O)c3cccc4cccc2c34)[C@@]2(CCC/C(=C\c3ccc(Cl)c(Cl)c3)C2=O)[C@H]1c1ccc(Cl)c(Cl)c1 (stereo not given in full)
Activity [4]: inactive

CN1C[C@H](c2ccccc2)C2(CN(C(=O)OC(C)(C)C)C/C(=C\c3ccccc3)C2=O)[C@]12C(=O)c1cccc3cccc2c13 (single isomer, unassigned)
Activity [1]: Non-Toxic | Activity [2]: Non-Toxic | Activity [3]: Non-Toxic

CCOc1ccc(/C=C2\CCC[C@@]3(C2=O)[C@@H](c2ccc(OCC)c(OCC)c2)C(C)N[C@@]32C(=O)c3cccc4cccc2c34)cc1OCC (stereo not given in full)
Activity [4]: inactive

CC1N[C@@]2(C(=O)c3cccc4cccc2c34)[C@@]2(CCC/C(=C\c3ccc(O)c(O)c3)C2=O)[C@H]1c1ccc(O)c(O)c1 (stereo not given in full)
Activity [4]: inactive

CN1C[C@H](c2ccccc2)[C@]2(COC/C(=C\c3ccccc3)C2=O)[C@]12C(=O)Nc1ccc(Cl)cc12
Activity [1]: Non-Toxic | Activity [2]: Non-Toxic | Activity [3]: Non-Toxic

CC1N[C@@]2(C(=O)c3cccc4cccc2c34)[C@@]2(CCC/C(=C\c3cccc(O)c3)C2=O)[C@H]1c1cccc(O)c1 (stereo not given in full)
Activity [4]: inactive

CC(C)CC1N[C@@]2(C(=O)c3cccc4cccc2c34)[C@@]2(CCC/C(=C\c3ccccc3)C2=O)[C@H]1c1ccccc1 (stereo not given in full)
Activity [4]: inactive

CN1C[C@H](c2ccccc2)[C@]2(CN(C(=O)OC(C)(C)C)C/C(=C\c3ccccc3)C2=O)[C@]12C(=O)Nc1ccc(Cl)cc12
Activity [1]: Non-Toxic | Activity [2]: Non-Toxic | Activity [3]: Non-Toxic

CC1N[C@@]2(C(=O)c3cccc4cccc2c34)[C@@]2(CCC/C(=C\c3ccc(O)cc3)C2=O)[C@H]1c1ccc(O)cc1 (stereo not given in full)
Activity [4]: inactive

O=C1c2cccc3cccc(c23)[C@]12N1CCC(O)C1[C@H](c1ccccc1)[C@]21CCC/C(=C\c2ccccc2)C1=O (stereo not given in full)
Activity [4]: Active

CC1N[C@@]2(C(=O)c3cccc4cccc2c34)[C@@]2(CCC/C(=C\c3ccccc3F)C2=O)[C@H]1c1ccccc1F (stereo not given in full)
Activity [5]: Active | Activity [4]: Active

CN1C[C@H](c2ccccc2)[C@H](C(=O)/C=C/c2ccccc2)[C@]12C(=O)Nc1ccc(Cl)cc12
Activity [1]: Toxic | Activity [2]: Toxic | Activity [3]: Toxic

CC1N[C@@]2(C(=O)c3cccc4cccc2c34)[C@@]2(CCC/C(=C\N3CCOCC3)C2=O)[C@H]1N1CCOCC1 (stereo not given in full)
Activity [4]: Active

CN1C[C@H](c2ccccc2)[C@]2(CCC/C(=C\c3ccccc3)C2=O)[C@]12C(=O)Nc1ccccc12
Activity [1]: Non-Toxic | Activity [2]: Non-Toxic | Activity [3]: Non-Toxic

NC(=O)CCC1N[C@@]2(C(=O)c3cccc4cccc2c34)[C@@]2(CCC/C(=C\c3ccccc3)C2=O)[C@H]1c1ccccc1 (stereo not given in full)
Activity [4]: inactive

CC1N[C@@]2(C(=O)c3cccc4cccc2c34)[C@@]2(CCC/C(=C\c3ccccc3Br)C2=O)[C@H]1c1ccccc1Br (stereo not given in full)
Activity [4]: Active

CCC(C)C1N[C@@]2(C(=O)c3cccc4cccc2c34)[C@@]2(CCC/C(=C\c3ccccc3)C2=O)[C@H]1c1ccccc1 (stereo not given in full)
Activity [4]: inactive

NC(=O)CC1N[C@@]2(C(=O)c3cccc4cccc2c34)[C@@]2(CCC/C(=C\c3ccccc3)C2=O)[C@H]1c1ccccc1 (stereo not given in full)
Activity [4]: Active

CC1N[C@@]2(C(=O)c3cccc4cccc2c34)[C@@]2(CCC/C(=C\c3ccc(Br)cc3)C2=O)[C@H]1c1ccc(Br)cc1 (stereo not given in full)
Activity [4]: Active
